How the values were obtained:
[1] = test system: Cisplatin-induced uremia in the Sprague-Dawley rat model; settings: single dose of 10 μg/1 mL/head and 20 μg/1 mL/head IV, vs control group of excipient
Description: (§1) The intravenous administration was done by fixing an animal into a correction frame, and slowly injecting at a rate of within 1 mL/min through the micro vein using a syringe equipped with 26 gauges needle. The intraperitoneal administration was performed by fixing the animal by a transdermal skin fixation method and intraperitoneally injecting using a syringe equipped with 26 gauges needle.
Serum obtained from the centrifugation was tested for blood urea nitrogen (BUN) and […] (CRE) using a blood biochemical analyzer (7180 Hitachi, Japan).

[2] = test system: Cisplatin-induced uremia in the Sprague-Dawley rat model
Description: as §1
Finally, animals were inhaled with ether on an necropsy day to anesthetize and euthanize, and kidneys were extracted and fixed in a 10% neutral buffered formalin solution, and the fixed tissues were cut, dehydrated, paraffin embedded and hematoxylin & eosin stained to make a specimens for histopathological examination after these histological treatment. And then, the obtained specimen is subjected to speculum using an optical microscope (Olympus BX53, Japan).

Q: For “alarin (human) trifluoroacetate salt [test substance]”, which blood biochemical level [1] is on record?
A: tendency to improve

Q: What about the “histopathological examination results, lesion level” value ([2]; 10 and 20 μg/1 mL/head IV single dose, across doses) of the same substance?
A: dose-related change trend and significant changes in lesion level

Q: And the “level of lesion (histopathological examination of kidney)” value ([2]; high dose group (20 μg/1 mL/head IV, single dose), necropsy Day 7, H&E, vs control group)?
A: significantly lower

Reference: patent US11642392B2, “Therapeutic agent of uremia containing alarin as the main ingredient” (JU TIDE CO., LTD., priority 2017, dated 2023)
